Measured values reported in ChEMBL document CHEMBL5113478, “7-Azaindole, 2,7-diazaindole, and 1H-pyrazole as core structures for novel anticancer agents with potential chemosensitizing properties” (Eur J Med Chem, 2022).

Experiments:
Assay type in all cases: functional
[1] = system: MOLT-4; experiment: Antiproliferative activity against human MOLT-4 cells assessed as […] cell proliferation at 10 uM incubated for 48 hrs by WST-1 assay relative to control
[2] = system: MOLT-4; experiment: Antiproliferative activity against human MOLT-4 cells assessed as […] cell proliferation at 10 uM incubated for 48 hrs in presence of 2 uM of CDDP by WST-1 assay relative to control
[3] = system: Jurkat; experiment: Antiproliferative activity against human Jurkat cells assessed as […] cell proliferation at 10 uM incubated for 48 hrs by WST-1 assay relative to control
[4] = system: Jurkat; experiment: Antiproliferative activity against human Jurkat cells assessed as […] cell proliferation at 10 uM incubated for 48 hrs in presence of 2 uM of CDDP by WST-1 assay relative to control
[5] = system: A2780; experiment: Antiproliferative activity against human A2780 cells assessed as […] cell proliferation at 10 uM incubated for 48 hrs by WST-1 assay relative to control
[6] = system: A2780; experiment: Antiproliferative activity against human A2780 cells assessed as […] cell proliferation at 10 uM incubated for 48 hrs in presence of 2 uM of CDDP by WST-1 assay relative to control
[7] = system: MCF7; experiment: Antiproliferative activity against human MCF7 cells assessed as […] cell proliferation at 10 uM incubated for 48 hrs by WST-1 assay relative to control
[8] = system: MCF7; experiment: Antiproliferative activity against human MCF7 cells assessed as […] cell proliferation at 10 uM incubated for 48 hrs in presence of 10 uM of CDDP by WST-1 assay relative to control
[9] = system: A549; experiment: Antiproliferative activity against human A549 cells assessed as […] cell proliferation at 10 uM incubated for 48 hrs by WST-1 assay relative to control
[10] = system: A549; experiment: Antiproliferative activity against human A549 cells assessed as […] cell proliferation at 10 uM incubated for 48 hrs in presence of 15 uM of CDDP by WST-1 assay relative to control
[11] = system: SAOS-2; experiment: Antiproliferative activity against human SAOS-2 cells assessed as […] cell proliferation at 10 uM incubated for 48 hrs by WST-1 assay relative to control
[12] = system: SAOS-2; experiment: Antiproliferative activity against human SAOS-2 cells assessed as […] cell proliferation at 10 uM incubated for 48 hrs in presence of 15 uM of CDDP by WST-1 assay relative to control
[13] = system: PANC-1; experiment: Antiproliferative activity against human PANC-1 cells assessed as […] cell proliferation at 10 uM incubated for 48 hrs by WST-1 assay relative to control
[14] = system: PANC-1; experiment: Antiproliferative activity against human PANC-1 cells assessed as […] cell proliferation at 10 uM incubated for 48 hrs in presence of 15 uM of CDDP by WST-1 assay relative to control
[15] = system: HT-29; experiment: Antiproliferative activity against human HT-29 cells assessed as […] cell proliferation at 10 uM incubated for 48 hrs by WST-1 assay relative to control
[16] = system: HT-29; experiment: Antiproliferative activity against human HT-29 cells assessed as […] cell proliferation at 10 uM incubated for 48 hrs in presence of 15 uM of CDDP by WST-1 assay relative to control
[17] = system: HeLa; experiment: Antiproliferative activity against human HeLa cells assessed as […] cell proliferation at 10 uM incubated for 48 hrs by WST-1 assay relative to control
[18] = system: HeLa; experiment: Antiproliferative activity against human HeLa cells assessed as […] cell proliferation at 10 uM incubated for 48 hrs in presence of 15 uM of CDDP by WST-1 assay relative to control

## CC(C)S(=O)(=O)c1ccc(-c2cnc3[nH]cc(C(=O)N4CCc5ccccc5C4)c3c2)cc1
[1]
  Activity: 85%
[2]
  Activity: 66%
[3]
  Activity: 85%
[4]
  Activity: 66%
[5]
  Activity: 85%
[6]
  Activity: 66%
[7]
  Activity: 85%
[8]
  Activity: 66%
[9]
  Activity: 85%
[10]
  Activity: 66%
[11]
  Activity: 85%
[12]
  Activity: 66%
[13]
  Activity: 85%
[14]
  Activity: 66%
[15]
  Cell viability relative to control: 85%
[16]
  Activity: 66%
[17]
  Activity: 85%
[18]
  Activity: 66%

## CS(=O)(=O)c1ccc(-c2cnc3[nH]nc(C(=O)N4CCC(c5ccccc5)CC4)c3c2)cc1
[1]
  Activity: 92%
[2]
  Activity: 71%
[3]
  Activity: 92%
[4]
  Activity: 71%
[5]
  Activity: 92%
[6]
  Activity: 71%
[7]
  Activity: 92%
[8]
  Activity: 71%
[9]
  Activity: 92%
[10]
  Activity: 71%
[11]
  Activity: 92%
[12]
  Activity: 71%
[13]
  Activity: 92%
[14]
  Activity: 71%
[15]
  Cell viability relative to control: 92%
[16]
  Activity: 71%
[17]
  Activity: 92%
[18]
  Activity: 71%

## CCN1CCN(C2CCN(C(=O)c3c[nH]c4ncc(-c5ccc(S(=O)(=O)C(C)C)cc5)cc34)CC2)CC1
[1]
  Activity: 100%
[2]
  Activity: 62%
[3]
  Activity: 100%
[4]
  Activity: 62%
[5]
  Activity: 100%
[6]
  Activity: 62%
[7]
  Activity: 100%
[8]
  Activity: 62%
[9]
  Activity: 100%
[10]
  Activity: 62%
[11]
  Activity: 100%
[12]
  Activity: 62%
[13]
  Activity: 100%
[14]
  Activity: 62%
[15]
  Cell viability relative to control: 100%
[16]
  Activity: 62%
[17]
  Activity: 100%
[18]
  Activity: 62%

## CC(C)S(=O)(=O)c1ccc(-c2cc(-c3nnc(-c4ccccc4)o3)n[nH]2)cc1
[1]
  Activity: 98%
[2]
  Activity: 64%
[3]
  Activity: 98%
[4]
  Activity: 64%
[5]
  Activity: 98%
[6]
  Activity: 64%
[7]
  Activity: 98%
[8]
  Activity: 64%
[9]
  Activity: 98%
[10]
  Activity: 64%
[11]
  Activity: 98%
[12]
  Activity: 64%
[13]
  Activity: 98%
[14]
  Activity: 64%
[15]
  Cell viability relative to control: 98%
[16]
  Activity: 64%
[17]
  Activity: 98%
[18]
  Activity: 64%

## CCN1CCN(Cc2c[nH]c3ncc(-c4ccc(S(=O)(=O)C(C)C)cc4)cc23)CC1
[1]
  Activity: 97%
[2]
  Activity: 65%
[3]
  Activity: 97%
[4]
  Activity: 65%
[5]
  Activity: 97%
[6]
  Activity: 65%
[7]
  Activity: 97%
[8]
  Activity: 65%
[9]
  Activity: 97%
[10]
  Activity: 65%
[11]
  Activity: 97%
[12]
  Activity: 65%
[13]
  Activity: 97%
[14]
  Activity: 65%
[15]
  Cell viability relative to control: 97%
[16]
  Activity: 65%
[17]
  Activity: 97%
[18]
  Activity: 65%

## CCN1CCN(C(=O)c2cc(-c3ccc(S(C)(=O)=O)cc3)[nH]n2)CC1
[1]
  Activity: 102%
[2]
  Activity: 65%
[3]
  Activity: 102%
[4]
  Activity: 65%
[5]
  Activity: 102%
[6]
  Activity: 65%
[7]
  Activity: 102%
[8]
  Activity: 65%
[9]
  Activity: 102%
[10]
  Activity: 65%
[11]
  Activity: 102%
[12]
  Activity: 65%
[13]
  Activity: 102%
[14]
  Activity: 65%
[15]
  Cell viability relative to control: 102%
[16]
  Activity: 65%
[17]
  Activity: 102%
[18]
  Activity: 65%

## CC(C)S(=O)(=O)c1ccc(-c2cc(C(=O)Nc3ccc(N(C)C)cc3)n[nH]2)cc1
[1]
  Activity: 93%
[2]
  Activity: 65%
[3]
  Activity: 93%
[4]
  Activity: 65%
[5]
  Activity: 93%
[6]
  Activity: 65%
[7]
  Activity: 93%
[8]
  Activity: 65%
[9]
  Activity: 93%
[10]
  Activity: 65%
[11]
  Activity: 93%
[12]
  Activity: 65%
[13]
  Activity: 93%
[14]
  Activity: 65%
[15]
  Cell viability relative to control: 93%
[16]
  Activity: 65%
[17]
  Activity: 93%
[18]
  Activity: 65%

## CC(C)S(=O)(=O)c1ccc(-c2cnc3[nH]cc(C(=O)NCc4ccccc4)c3c2)cc1
[1]
  Activity: 83%
[2]
  Activity: 65%
[3]
  Activity: 83%
[4]
  Activity: 65%
[5]
  Activity: 83%
[6]
  Activity: 65%
[7]
  Activity: 83%
[8]
  Activity: 65%
[9]
  Activity: 83%
[10]
  Activity: 65%
[11]
  Activity: 83%
[12]
  Activity: 65%
[13]
  Activity: 83%
[14]
  Activity: 65%
[15]
  Cell viability relative to control: 83%
[16]
  Activity: 65%
[17]
  Activity: 83%
[18]
  Activity: 65%

## CCN(CC)c1ccc(CNC(=O)c2cc(-c3ccc(S(=O)(=O)C(C)C)cc3)[nH]n2)cc1
[1]
  Activity: 78%
[2]
  Activity: 62%
[3]
  Activity: 78%
[4]
  Activity: 62%
[5]
  Activity: 78%
[6]
  Activity: 62%
[7]
  Activity: 78%
[8]
  Activity: 62%
[9]
  Activity: 78%
[10]
  Activity: 62%
[11]
  Activity: 78%
[12]
  Activity: 62%
[13]
  Activity: 78%
[14]
  Activity: 62%
[15]
  Cell viability relative to control: 78%
[16]
  Activity: 62%
[17]
  Activity: 78%
[18]
  Activity: 62%

## CC(C)S(=O)(=O)c1ccc(-c2cnc3[nH]c(C(=O)N4CCC(c5ccccc5)CC4)cc3c2)cc1
[1]
  Activity: 92%
[2]
  Activity: 64%
[3]
  Activity: 92%
[4]
  Activity: 64%
[5]
  Activity: 92%
[6]
  Activity: 64%
[7]
  Activity: 92%
[8]
  Activity: 64%
[9]
  Activity: 92%
[10]
  Activity: 64%
[11]
  Activity: 92%
[12]
  Activity: 64%
[13]
  Activity: 92%
[14]
  Activity: 64%
[15]
  Cell viability relative to control: 92%
[16]
  Activity: 64%
[17]
  Activity: 92%
[18]
  Activity: 64%

## CC(C)S(=O)(=O)c1ccc(-c2cnc3[nH]cc(CN4CCc5ccccc5C4)c3c2)cc1
[1]
  Activity: 101%
[2]
  Activity: 62%
[3]
  Activity: 101%
[4]
  Activity: 62%
[5]
  Activity: 101%
[6]
  Activity: 62%
[7]
  Activity: 101%
[8]
  Activity: 62%
[9]
  Activity: 101%
[10]
  Activity: 62%
[11]
  Activity: 101%
[12]
  Activity: 62%
[13]
  Activity: 101%
[14]
  Activity: 62%
[15]
  Cell viability relative to control: 101%
[16]
  Activity: 62%
[17]
  Activity: 101%
[18]
  Activity: 62%

## CS(=O)(=O)c1ccc(-c2cnc3[nH]c(C(=O)NCc4ccccc4)cc3c2)cc1
[1]
  Activity: 100%
[2]
  Activity: 72%
[3]
  Activity: 100%
[4]
  Activity: 72%
[5]
  Activity: 100%
[6]
  Activity: 72%
[7]
  Activity: 100%
[8]
  Activity: 72%
[9]
  Activity: 100%
[10]
  Activity: 72%
[11]
  Activity: 100%
[12]
  Activity: 72%
[13]
  Activity: 100%
[14]
  Activity: 72%
[15]
  Cell viability relative to control: 100%
[16]
  Activity: 72%
[17]
  Activity: 100%
[18]
  Activity: 72%

## CS(=O)(=O)c1ccc(-c2cnc3[nH]c(C(=O)N4CCC(c5ccccc5)CC4)cc3c2)cc1
[1]
  Activity: 93%
[2]
  Activity: 66%
[3]
  Activity: 93%
[4]
  Activity: 66%
[5]
  Activity: 93%
[6]
  Activity: 66%
[7]
  Activity: 93%
[8]
  Activity: 66%
[9]
  Activity: 93%
[10]
  Activity: 66%
[11]
  Activity: 93%
[12]
  Activity: 66%
[13]
  Activity: 93%
[14]
  Activity: 66%
[15]
  Cell viability relative to control: 93%
[16]
  Activity: 66%
[17]
  Activity: 93%
[18]
  Activity: 66%
